From ChEMBL document CHEMBL1201862, “PubChem BioAssay data set” (2004) come the findings set out here.

Among the test systems are A549; TK-10; U-251; RXF 393; MDA-MB-435; SK-MEL-28; OVCAR-8; MDA-MB-231; HCT-15; KM12; NCI-H522; NCI/ADR-RES; SNB-75; SK-OV-3; EKVX; PC-3; SNB-19; UO-31; 786-0; A498.
Holding throughout (experiment): inhibition of tumour cell growth, NCI panel, 48 h

SMILES strings stand for the structures.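 Interpolation was linear, between the two tested concentrations surrounding the appropriate level; five concentrations were tested over 48 hours in 96-well plates. GI50 is the concentration that inhibits growth by half.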 Activity calls are given as the source filed them. No stated cut-off is given here; in the data, active = GI50 up to about 1.1 µM and inactive = higher.

For `O=C1OC2(c3ccc(O)cc3Oc3cc(O)ccc32)c2c1c(-c1ccccc1)c(-c1ccccc1)c(-c1ccccc1)c2-c1ccccc1`, the GI50 with A549 was 34.5 µM (inactive); in the experiment with TK-10, 23.7 µM (inactive); in the experiment with U-251, 17.7 µM (inactive); in the experiment on RXF 393 it was 23.7 µM (inactive); in the experiment on MDA-MB-435, 17.2 µM (inactive); in the experiment on SK-MEL-28, 20.8 µM (inactive). Moreover, the GI50 in the experiment on OVCAR-8 is 22.4 µM (inactive); with MDA-MB-231, 18.7 µM (inactive); in the experiment with HCT-15 it was 18.7 µM; in the experiment on KM12, 17.1 µM (inactive); in the experiment with NCI-H522, 18.2 µM (inactive); in the experiment with NCI/ADR-RES it was 31.2 µM (inactive). The GI50 in the experiment with SNB-75 is 18.7 µM (inactive); in the experiment on SK-OV-3, 39 µM (inactive); in the experiment with EKVX, 25.8 µM (inactive); in the experiment on PC-3, 17.9 µM (inactive); in the experiment on SNB-19, 18.7 µM (inactive); with UO-31, 25.7 µM (inactive). Besides, the GI50 with 786-0 is 27.7 µM (inactive); in the experiment on A498 it was 19.7 µM (inactive).

As for `CN1CCN([C@H]2C[C@H]3[C@@H]4CC=C5C[C@@H](O)CC[C@]5(C)[C@H]4CC[C@]3(C)[C@H]2O)CC1`, the GI50 was > 100 µM (inactive) in the experiment with A549; > 100 µM (inactive) in the experiment on TK-10; 17.1 µM (inactive) in the experiment with U-251; 16.9 µM (inactive) in the experiment with RXF 393; 16.9 µM (inactive) in the experiment with MDA-MB-435; 27.4 µM (inactive) in the experiment with SK-MEL-28. Besides, the GI50 was > 42.8 µM (inactive) in the experiment on OVCAR-8; > 48.3 µM (inactive) in the experiment with MDA-MB-231; over 42.3 µM in the experiment with HCT-15; > 53.8 µM (inactive) with KM12; > 100 µM (inactive) in the experiment with NCI-H522; > 87.7 µM (inactive) with NCI/ADR-RES. Further, the GI50 in the experiment with SNB-75 is > 49.2 µM (inactive); in the experiment on SK-OV-3 it was > 100 µM (inactive); in the experiment with EKVX, > 100 µM (inactive); in the experiment with PC-3, > 51.2 µM (inactive); with SNB-19, > 45.5 µM (inactive); in the experiment with UO-31, > 100 µM (inactive). For the same molecule, the GI50 in the experiment on 786-0 was 17.8 µM (inactive); in the experiment with A498, > 100 µM (inactive).

On to `OC1C[C@H](c2ccccc2)C2(C(O)c3ccccc3C2O)[C@@H](c2ccccc2)C1` (stereo not given in full), for which the GI50 in the experiment with A549, in the experiment on TK-10, in the experiment on U-251, with RXF 393, with MDA-MB-435 and with SK-MEL-28 was > 100 µM (inactive) each time. The GI50 in the experiment on OVCAR-8 was > 100 µM (inactive); in the experiment with MDA-MB-231 it was > 100 µM (inactive); with HCT-15, over 100 µM; in the experiment with KM12, > 100 µM (inactive); in the experiment on NCI-H522, 32.4 µM (inactive); with NCI/ADR-RES, 14.3 µM (inactive). Besides, the GI50 is 53.7 µM (inactive) in the experiment on SNB-75; > 100 µM (inactive) with SK-OV-3; > 100 µM (inactive) in the experiment with EKVX; > 100 µM (inactive) in the experiment with PC-3; > 100 µM (inactive) in the experiment with SNB-19; > 100 µM (inactive) in the experiment on UO-31. In addition, the GI50 with 786-0 and in the experiment on A498 was > 100 µM (inactive) throughout.

For the molecule `CC(C)(C)OC(=O)NC(Cc1ccc(OCc2ccccc2)cn1)C(=O)NCc1ccccc1` (stereo not given), the GI50 in the experiment on A549 was 36.6 µM (inactive); in the experiment on TK-10, 30.3 µM (inactive); in the experiment on U-251, 26.1 µM (inactive); in the experiment with RXF 393 it was 27.9 µM (inactive); with MDA-MB-435, 20.1 µM (inactive); in the experiment with SK-MEL-28 it was 31.3 µM (inactive). Moreover, the GI50 with OVCAR-8 is 26.3 µM (inactive); with MDA-MB-231, 24.6 µM (inactive); in the experiment with HCT-15, 24.6 µM; in the experiment with KM12, 29.7 µM (inactive); in the experiment on NCI-H522, 17.1 µM (inactive); with NCI/ADR-RES, 16.7 µM (inactive). Besides, the GI50 in the experiment on SNB-75 is 27.1 µM (inactive); in the experiment on SK-OV-3 it was 22.1 µM (inactive); in the experiment with EKVX, 26.2 µM (inactive); in the experiment on PC-3, 20.4 µM (inactive); in the experiment with SNB-19 it was 49.9 µM (inactive); with UO-31 it was 34.7 µM (inactive). Besides, the GI50 in the experiment on 786-0 was 27.1 µM (inactive); with A498, 32.1 µM (inactive).

For the molecule `O=C1N(CN2CCOCC2)CN(CN2CCOCC2)C(=O)N1Cc1ccccc1`, the GI50 in the experiment on A549 was 40.4 µM (inactive); in the experiment with TK-10, > 100 µM (inactive); in the experiment with U-251 it was 23.3 µM (inactive); in the experiment on RXF 393, 17.7 µM (inactive); in the experiment with MDA-MB-435, 20 µM (inactive); in the experiment with SK-MEL-28 it was 19.3 µM (inactive). Moreover, the GI50 is 19.2 µM (inactive) with OVCAR-8; 26.2 µM (inactive) in the experiment on MDA-MB-231; 27.6 µM in the experiment with HCT-15; 23.8 µM (inactive) with KM12; 13.3 µM (inactive) in the experiment on NCI-H522; 23.1 µM (inactive) in the experiment on NCI/ADR-RES. Also, the GI50 with SNB-75 is 25.5 µM (inactive); with SK-OV-3 it was > 100 µM (inactive); in the experiment on EKVX, 38.5 µM (inactive); in the experiment with PC-3, 29.9 µM (inactive); with SNB-19, > 100 µM (inactive); in the experiment on UO-31, 28.1 µM (inactive). Also, the GI50 in the experiment with 786-0 is 26.6 µM (inactive); in the experiment with A498 it was > 100 µM (inactive).

As for `CCN(CC)CCCNc1nncc2c(C)c3[nH]c4ccccc4c3cc12`, the GI50 in the experiment with A549 was 0.67 µM (active); with TK-10 it was 4.52 µM (inactive); in the experiment with U-251, 0.605 µM (active); in the experiment on RXF 393 it was 1.63 µM (inactive); with MDA-MB-435, 1.25 µM (inactive); with SK-MEL-28 it was 1.24 µM (inactive). The GI50 in the experiment with OVCAR-8 was 0.685 µM (active); in the experiment with MDA-MB-231, 0.374 µM (active); in the experiment on HCT-15, 7.57 µM; in the experiment with KM12 it was 0.667 µM (active); in the experiment with NCI-H522, 0.16 µM (active); in the experiment on NCI/ADR-RES, 89.5 µM (inactive). The GI50 with SNB-75 was 1.41 µM (inactive); with SK-OV-3 it was 0.989 µM (active); in the experiment on EKVX it was 1.37 µM (inactive); in the experiment with PC-3, 0.705 µM (active); in the experiment on SNB-19, 0.644 µM (active); in the experiment on UO-31, 5.79 µM (inactive). Moreover, the GI50 in the experiment with 786-0 is 0.667 µM (active); in the experiment with A498 it was 0.665 µM (active).

Consider `CC[C@]1(Cc2ccc(OC)c(OC)c2)C=[N+]([O-])O[C@H](OCc2ccccc2)[C@@H]1OC(C)=O`, for which the GI50 in the experiment with A549 is 36.2 µM (inactive); with TK-10, 41.7 µM (inactive); with U-251 it was 32.3 µM (inactive); in the experiment with RXF 393, 18.2 µM (inactive); in the experiment with MDA-MB-435, 38.4 µM (inactive); in the experiment on SK-MEL-28 it was 25.8 µM (inactive). For the same molecule, the GI50 in the experiment with OVCAR-8 was 30.3 µM (inactive); in the experiment with MDA-MB-231, 36.4 µM (inactive); in the experiment on HCT-15 it was 29.8 µM; in the experiment on KM12, 22.2 µM (inactive); with NCI-H522, 12.4 µM (inactive); in the experiment on NCI/ADR-RES it was 33.3 µM (inactive). Also, the GI50 in the experiment with SNB-75 was 30.5 µM (inactive); in the experiment on SK-OV-3 it was 48.9 µM (inactive); in the experiment with EKVX it was 16.5 µM (inactive); with PC-3, 20.5 µM (inactive); in the experiment with SNB-19, 58.3 µM (inactive); in the experiment on UO-31 it was 32.1 µM (inactive). In addition, the GI50 is 36.2 µM (inactive) in the experiment with 786-0 and 32.7 µM (inactive) in the experiment with A498.

Turning to `CCCC(=O)Nc1cc(C(=O)N2C[C@H]3C[C@@]34C2=CC(=O)c2[nH]cc(C)c24)n(COC)c1`, the GI50 is 1.51 µM (inactive) with A549; 0.556 µM (active) with TK-10; 0.114 µM (active) in the experiment with U-251; 0.164 µM (active) in the experiment with RXF 393; 0.19 µM (active) with MDA-MB-435; 0.208 µM (active) with SK-MEL-28. The GI50 with OVCAR-8 was 0.0973 µM (active); with MDA-MB-231, 0.281 µM (active); with HCT-15 it was 1.31 µM; with KM12, 0.449 µM (active); in the experiment on NCI-H522, 0.0553 µM (active); with NCI/ADR-RES it was 0.656 µM (active). In addition, the GI50 is 0.248 µM (active) with SNB-75; 1.29 µM (inactive) with SK-OV-3; 0.843 µM (active) in the experiment on EKVX; 0.745 µM (active) with PC-3; 0.498 µM (active) with SNB-19; 0.843 µM (active) with UO-31. For the same molecule, the GI50 with 786-0 is 0.149 µM (active); in the experiment with A498 it was 0.741 µM (active).

As for `CS(=O)(=O)OCCN(CCOS(C)(=O)=O)c1ccc(/C=N/c2ccc(-c3csc(COc4ccccc4)n3)cc2)cc1`, the GI50 with A549 is 3.21 µM (inactive); in the experiment on TK-10 it was 3.05 µM (inactive); in the experiment with U-251, 7.24 µM (inactive); with RXF 393 it was 0.461 µM (active); in the experiment with MDA-MB-435, 12.4 µM (inactive); in the experiment on SK-MEL-28, 12.7 µM (inactive). The GI50 was 6.17 µM (inactive) in the experiment on OVCAR-8; 17 µM (inactive) in the experiment with MDA-MB-231; 8.51 µM in the experiment on HCT-15; 4.78 µM (inactive) in the experiment on KM12; 0.295 µM (active) with NCI-H522; 10.1 µM (inactive) in the experiment on NCI/ADR-RES. In addition, the GI50 was 1.9 µM (inactive) in the experiment with SNB-75; 1.69 µM (inactive) with SK-OV-3; 5.5 µM (inactive) in the experiment with EKVX; 7.06 µM (inactive) in the experiment on PC-3; 9.16 µM (inactive) with SNB-19; 0.65 µM (active) in the experiment on UO-31. Besides, the GI50 in the experiment with 786-0 is 0.429 µM (active); with A498, 2.6 µM (inactive).

Regarding `Nc1cc2c(c3ccccc13)C(CCl)CN2C(=O)c1cc2cc(NC(=O)c3cc4ccccc4o3)ccc2[nH]1` (stereo not given), the GI50 in the experiment with A549 is 0.000891 µM (active); in the experiment on TK-10 it was 0.00429 µM (active); in the experiment with U-251 it was 0.00281 µM (active); in the experiment with RXF 393, 0.11 µM (active); in the experiment with MDA-MB-435, 0.0055 µM (active); in the experiment on SK-MEL-28, 0.0123 µM (active). Also, the GI50 in the experiment with OVCAR-8 is 0.000408 µM (active); in the experiment with MDA-MB-231, 0.0221 µM (active); in the experiment on HCT-15, 0.00382 µM; in the experiment with KM12 it was 0.00296 µM (active); in the experiment on NCI-H522, 0.000925 µM (active); with NCI/ADR-RES it was 0.00136 µM (active). Further, the GI50 with SNB-75 is 0.00294 µM (active); with SK-OV-3, 0.11 µM (active); in the experiment on EKVX, 0.11 µM (active); in the experiment on PC-3, 0.00513 µM (active); in the experiment with SNB-19, 0.0124 µM (active); with UO-31, 0.00128 µM (active). Further, the values for the GI50 with 786-0 and in the experiment with A498 were 0.00121 µM (active) and 0.00184 µM (active), respectively.
